# In ChEMBL document CHEMBL5390237, “Discovery of Selective Histone Deacetylase 1 and 2 Inhibitors: Screening of a Focused Library Constructed by Click Chemistry, Kinetic Binding Analysis, and Biological Evaluation” (J Med Chem, 2023):
# The source made the active and inactive calls. The calls are words filed in the database; no cut-off is given here.
# Columns and labels:
# Histone deacetylase 2 [1] = biological target: T1, Histone deacetylase 2 (Homo sapiens, UniProt Q92769); test: Inhibition of full-length recombinant human C-terminal GST tagged HDAC2 expressed in Sf9 insect cells using aminoluciferin peptide substrate at 100 nM preincubated for 3 hrs followed by substrate addition and measured after 30 mins by HDAC-Glo I/II chemiluminescence assay; settings: time 3.5 hrs
# T1 sequence (Q92769 whole entry): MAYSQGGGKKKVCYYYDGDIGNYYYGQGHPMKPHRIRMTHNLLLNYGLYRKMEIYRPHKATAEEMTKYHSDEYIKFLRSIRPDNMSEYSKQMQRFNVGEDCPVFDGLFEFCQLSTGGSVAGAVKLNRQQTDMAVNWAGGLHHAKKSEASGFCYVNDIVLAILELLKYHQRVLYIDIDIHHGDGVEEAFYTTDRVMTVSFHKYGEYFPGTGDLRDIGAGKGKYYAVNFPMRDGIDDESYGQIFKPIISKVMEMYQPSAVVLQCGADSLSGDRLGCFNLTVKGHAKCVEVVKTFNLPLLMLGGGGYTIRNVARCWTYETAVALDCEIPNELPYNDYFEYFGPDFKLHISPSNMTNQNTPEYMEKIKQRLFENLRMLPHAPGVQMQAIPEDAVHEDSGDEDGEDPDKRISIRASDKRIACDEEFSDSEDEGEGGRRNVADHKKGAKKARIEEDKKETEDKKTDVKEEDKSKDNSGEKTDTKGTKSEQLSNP
# Histone deacetylase 1 = Histone deacetylase 1 (Homo sapiens, UniProt Q13547); test: Inhibition of full-length recombinant human C-terminal GST tagged HDAC1 expressed in Sf9 insect cells using aminoluciferin peptide substrate at 10 to 100 nM preincubated for 3 hrs followed by substrate addition and measured after 30 mins by HDAC-Glo I/II chemiluminescence assay; settings: dose 10-100 nM, time 3.5 hrs
# Histone deacetylase 1, sequence (Q13547 whole entry, the tested form may be a part): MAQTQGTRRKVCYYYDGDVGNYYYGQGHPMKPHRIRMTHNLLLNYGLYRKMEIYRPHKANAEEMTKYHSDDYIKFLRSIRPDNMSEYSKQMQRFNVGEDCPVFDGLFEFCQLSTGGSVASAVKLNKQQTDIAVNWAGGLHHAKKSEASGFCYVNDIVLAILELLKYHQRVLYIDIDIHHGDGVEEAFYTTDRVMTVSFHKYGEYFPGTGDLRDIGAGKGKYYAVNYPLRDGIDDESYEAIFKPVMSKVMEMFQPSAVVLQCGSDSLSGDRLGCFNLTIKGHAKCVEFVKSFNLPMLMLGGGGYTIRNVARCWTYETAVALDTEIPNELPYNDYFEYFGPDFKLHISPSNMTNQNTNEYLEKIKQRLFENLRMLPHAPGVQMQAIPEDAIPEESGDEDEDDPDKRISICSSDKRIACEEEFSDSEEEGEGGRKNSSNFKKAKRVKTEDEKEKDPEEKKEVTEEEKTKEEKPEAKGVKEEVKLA
# [2] = biological target: Histone deacetylase 3/NCoR1 (Homo sapiens, UniProt O15379); test: Inhibition of recombinant human HDAC3/human GST-tagged NCOR1 (397 to 503 residues) using K(Ac)382 peptide substrate preincubated for 3 hrs followed by substrate addition and measured after 30 mins by HDAC-Glo I/II chemiluminescence assay; format: protein-complex assay
# Histone deacetylase 3/NCoR1, sequence (O15379 whole entry, the tested form may be a part): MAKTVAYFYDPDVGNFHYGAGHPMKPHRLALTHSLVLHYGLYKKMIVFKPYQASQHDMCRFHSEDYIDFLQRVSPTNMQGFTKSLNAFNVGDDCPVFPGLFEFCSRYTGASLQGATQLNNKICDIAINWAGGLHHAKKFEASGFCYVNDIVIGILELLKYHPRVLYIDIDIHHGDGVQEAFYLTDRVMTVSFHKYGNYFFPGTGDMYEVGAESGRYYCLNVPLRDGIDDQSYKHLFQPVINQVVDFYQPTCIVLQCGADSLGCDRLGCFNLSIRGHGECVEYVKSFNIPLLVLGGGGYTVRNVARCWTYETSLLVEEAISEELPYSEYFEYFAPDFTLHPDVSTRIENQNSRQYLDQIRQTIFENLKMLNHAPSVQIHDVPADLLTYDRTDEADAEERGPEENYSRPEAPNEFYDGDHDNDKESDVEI
# Histone deacetylase 3/NCoR1, sequence (O75376 whole entry, further chain, the tested form may be a part): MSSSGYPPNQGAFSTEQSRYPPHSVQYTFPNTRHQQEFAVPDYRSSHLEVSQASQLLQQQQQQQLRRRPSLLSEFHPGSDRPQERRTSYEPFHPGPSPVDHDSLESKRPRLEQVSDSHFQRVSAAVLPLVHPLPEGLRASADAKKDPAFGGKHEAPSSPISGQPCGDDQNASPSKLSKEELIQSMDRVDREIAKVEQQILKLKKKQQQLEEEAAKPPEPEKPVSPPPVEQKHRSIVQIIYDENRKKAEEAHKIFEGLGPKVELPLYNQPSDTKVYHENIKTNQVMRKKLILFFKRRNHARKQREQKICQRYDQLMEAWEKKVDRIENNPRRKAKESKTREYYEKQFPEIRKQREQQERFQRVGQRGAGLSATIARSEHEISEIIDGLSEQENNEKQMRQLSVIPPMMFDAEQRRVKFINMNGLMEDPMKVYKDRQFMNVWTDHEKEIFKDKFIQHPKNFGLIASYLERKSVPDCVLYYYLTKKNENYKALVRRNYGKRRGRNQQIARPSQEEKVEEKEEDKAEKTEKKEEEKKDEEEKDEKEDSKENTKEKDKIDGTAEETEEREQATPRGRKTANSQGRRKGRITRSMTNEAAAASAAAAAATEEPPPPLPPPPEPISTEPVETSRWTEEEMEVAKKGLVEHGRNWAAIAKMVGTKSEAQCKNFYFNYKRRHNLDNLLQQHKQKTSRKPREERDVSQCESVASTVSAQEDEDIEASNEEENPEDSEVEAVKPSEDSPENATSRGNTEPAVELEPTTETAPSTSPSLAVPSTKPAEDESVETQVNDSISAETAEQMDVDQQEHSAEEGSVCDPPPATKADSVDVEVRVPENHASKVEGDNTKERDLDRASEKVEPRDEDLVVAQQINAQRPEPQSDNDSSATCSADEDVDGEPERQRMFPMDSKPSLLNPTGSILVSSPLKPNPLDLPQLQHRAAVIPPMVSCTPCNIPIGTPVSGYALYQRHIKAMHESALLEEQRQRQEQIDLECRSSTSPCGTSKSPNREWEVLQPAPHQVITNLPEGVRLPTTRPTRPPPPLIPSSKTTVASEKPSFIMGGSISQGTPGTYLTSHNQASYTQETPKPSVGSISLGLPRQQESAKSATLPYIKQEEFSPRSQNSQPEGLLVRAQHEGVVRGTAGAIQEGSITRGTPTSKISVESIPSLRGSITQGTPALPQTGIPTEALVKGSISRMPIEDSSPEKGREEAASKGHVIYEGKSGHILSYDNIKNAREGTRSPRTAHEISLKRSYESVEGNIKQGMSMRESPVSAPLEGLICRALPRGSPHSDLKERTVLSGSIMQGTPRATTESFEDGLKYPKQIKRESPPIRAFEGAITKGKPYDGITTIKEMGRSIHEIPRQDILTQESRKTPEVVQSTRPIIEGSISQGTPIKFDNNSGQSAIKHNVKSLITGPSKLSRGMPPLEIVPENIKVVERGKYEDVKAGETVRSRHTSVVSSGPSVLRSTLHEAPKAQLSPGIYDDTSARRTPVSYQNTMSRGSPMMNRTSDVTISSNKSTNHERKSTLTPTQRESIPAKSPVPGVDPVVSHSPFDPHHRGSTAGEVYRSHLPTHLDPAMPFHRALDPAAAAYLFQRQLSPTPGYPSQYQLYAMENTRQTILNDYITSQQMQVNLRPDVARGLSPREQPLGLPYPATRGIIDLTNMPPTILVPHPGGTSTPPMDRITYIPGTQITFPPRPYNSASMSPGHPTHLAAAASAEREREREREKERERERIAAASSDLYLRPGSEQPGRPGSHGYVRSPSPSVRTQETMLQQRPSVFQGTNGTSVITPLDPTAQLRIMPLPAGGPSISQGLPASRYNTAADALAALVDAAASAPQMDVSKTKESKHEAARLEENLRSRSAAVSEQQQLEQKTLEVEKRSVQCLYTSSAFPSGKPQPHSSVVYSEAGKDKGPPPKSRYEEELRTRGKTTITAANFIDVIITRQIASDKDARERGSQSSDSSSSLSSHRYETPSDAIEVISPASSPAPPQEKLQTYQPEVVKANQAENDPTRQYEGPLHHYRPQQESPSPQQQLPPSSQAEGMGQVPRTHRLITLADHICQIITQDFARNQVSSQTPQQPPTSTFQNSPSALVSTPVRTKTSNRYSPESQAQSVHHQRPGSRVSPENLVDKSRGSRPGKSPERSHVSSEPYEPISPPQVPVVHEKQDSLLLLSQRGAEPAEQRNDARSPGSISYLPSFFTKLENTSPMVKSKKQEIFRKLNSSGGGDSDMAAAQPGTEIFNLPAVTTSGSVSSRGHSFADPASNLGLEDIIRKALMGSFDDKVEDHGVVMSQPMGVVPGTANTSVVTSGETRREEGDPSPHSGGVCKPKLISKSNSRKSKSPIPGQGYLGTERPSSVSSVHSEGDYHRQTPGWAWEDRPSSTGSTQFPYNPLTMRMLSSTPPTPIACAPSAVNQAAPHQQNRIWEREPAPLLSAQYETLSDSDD
# Histone deacetylase 8 = biological target: T2, Histone deacetylase 8 (Homo sapiens, UniProt Q9BY41); test: Inhibition of full-length recombinant human C-terminal His-tagged HDAC8 expressed in Sf9 insect cells using aminoluciferin peptide substrate preincubated for 3 hrs followed by substrate addition and measured after 30 mins by HDAC-Glo I/II chemiluminescence assay
# T2 sequence (Q9BY41 whole entry): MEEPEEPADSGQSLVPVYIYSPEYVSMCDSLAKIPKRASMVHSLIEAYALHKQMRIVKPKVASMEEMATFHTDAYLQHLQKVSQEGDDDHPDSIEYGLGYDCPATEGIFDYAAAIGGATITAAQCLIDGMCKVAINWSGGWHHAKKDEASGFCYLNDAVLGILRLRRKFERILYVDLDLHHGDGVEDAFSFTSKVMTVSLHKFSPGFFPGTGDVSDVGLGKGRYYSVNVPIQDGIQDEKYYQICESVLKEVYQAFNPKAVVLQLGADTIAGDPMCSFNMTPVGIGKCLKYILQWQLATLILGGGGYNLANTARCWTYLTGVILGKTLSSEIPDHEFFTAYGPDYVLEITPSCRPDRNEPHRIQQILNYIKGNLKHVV
# [3] = biological target: T3, Histone deacetylase 7 (Homo sapiens) (UniProt Q8WUI4); test: Inhibition of recombinant human HDAC7 using fluorogenic substrate preincubated for 3 hrs followed by substrate addition and measured after 30 mins by fluorescence analysis; settings: time 3.5 hrs
# T3 sequence (whole entry): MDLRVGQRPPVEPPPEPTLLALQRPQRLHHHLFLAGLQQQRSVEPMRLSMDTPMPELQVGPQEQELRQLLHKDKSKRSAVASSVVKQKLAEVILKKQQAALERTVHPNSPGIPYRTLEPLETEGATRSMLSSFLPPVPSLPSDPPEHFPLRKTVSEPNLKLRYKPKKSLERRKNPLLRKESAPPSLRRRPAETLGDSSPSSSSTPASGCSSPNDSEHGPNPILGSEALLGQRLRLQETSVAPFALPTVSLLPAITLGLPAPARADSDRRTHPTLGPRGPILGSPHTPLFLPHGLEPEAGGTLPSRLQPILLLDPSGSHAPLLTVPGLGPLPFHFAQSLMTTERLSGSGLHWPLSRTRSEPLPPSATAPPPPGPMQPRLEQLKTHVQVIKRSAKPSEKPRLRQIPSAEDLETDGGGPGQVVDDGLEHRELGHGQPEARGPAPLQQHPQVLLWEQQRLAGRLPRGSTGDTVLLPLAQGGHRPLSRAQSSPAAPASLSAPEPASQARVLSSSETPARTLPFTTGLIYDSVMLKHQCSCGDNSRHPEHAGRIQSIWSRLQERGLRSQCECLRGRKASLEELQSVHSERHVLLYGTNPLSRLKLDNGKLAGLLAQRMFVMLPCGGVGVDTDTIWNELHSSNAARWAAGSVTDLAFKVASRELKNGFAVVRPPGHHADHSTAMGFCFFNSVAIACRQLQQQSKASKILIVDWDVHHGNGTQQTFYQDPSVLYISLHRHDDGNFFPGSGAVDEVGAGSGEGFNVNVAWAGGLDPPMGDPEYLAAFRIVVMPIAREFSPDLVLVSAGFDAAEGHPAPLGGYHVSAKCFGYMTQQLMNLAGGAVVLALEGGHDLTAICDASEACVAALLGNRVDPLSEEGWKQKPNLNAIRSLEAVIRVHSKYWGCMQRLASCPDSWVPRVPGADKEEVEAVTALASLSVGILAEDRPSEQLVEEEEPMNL
# Histone deacetylase 2 [4] = biological target: T1, Histone deacetylase 2; test: biochemical; format: cell-based, Sf9
# MCF7 [5] = test: Upregulation of TP53INP1 gene expression in human MCF7 cells at 2 uM incubated for 24 hrs by RT-qPCR analysis; format: functional, cell-based
# MCF7 [6] = test: Upregulation of TES gene expression in human MCF7 cells at 2 uM incubated for 24 hrs by RT-qPCR analysis; format: functional, cell-based
# MCF7 [7] = test: Downregulation of E2F1 gene expression in human MCF7 cells at 2 uM incubated for 24 hrs by microarray analysis; format: functional, cell-based
# MCF7 [8] = test: Downregulation of E2F7 gene expression in human MCF7 cells at 2 uM incubated for 24 hrs by microarray analysis; format: functional, cell-based
# MCF7 [9] = test: Downregulation of CCNE2 gene expression in human MCF7 cells at 2 uM incubated for 24 hrs by microarray analysis; format: functional, cell-based
inhibition (Histone deacetylase 2 [1]) [%],inhibition (Histone deacetylase 1),IC50 [2] [µM],IC50 (Histone deacetylase 8) [µM],inhibition [3],Ki (Histone deacetylase 2 [4]) [nM],SMILES,Activity (MCF7 [5]),Activity (MCF7 [6]),Activity (MCF7 [7]),Activity (MCF7 [8]),Activity (MCF7 [9])
77,Active,> 10,> 10,inactive,6.2,Nc1ccc(-c2cccs2)cc1NC(=O)c1ccc(-c2cn(CS(=O)(=O)c3ccccc3)nn2)cc1,Active,Active,Active,Active,Active
87,Active,> 10,4.45,inactive,22,Nc1ccc(-c2cccs2)cc1NC(=O)c1ccc(-c2cn(C[S+]([O-])c3ccccc3)nn2)cc1 (stereo not drawn),Active,Active,Active,Active,Active
81,Active,> 10,> 10,inactive,9.8,Nc1ccc(-c2cccs2)cc1NC(=O)c1ccc(-c2cn(CCc3ccccn3)nn2)cc1,Active,Active,Active,Active,Active
